# Assay results published in patent US20090053793A1, “Ethanol resistant and furfural resistant strains of E. coli FBR5 for production of ethanol from cellulosic biomass” (Rowan University, priority 2006, published 2009).
# Assay: Pilot batch fermentation in LB broth with xylose
# Parameters: species or system E. coli
# Details: pilot fermentations
# Method: Pilot fermentation studies were conducted in a 3L fermentation vessel in conjunction with a BioFlo 3000 system (which is marketed by New Brunswick Scientific Co. of Edison, N.J.) to monitor temperature, dissolved oxygen, air flow rate, agitation rate and pH. The media used for fermentation consisted of LB broth, xylose at various concentrations, and ampicillin. For some runs, glucose was also added to the media (see the mixed sugar fermentation discussed in connection with FIG. 12 below). To ensure sterility, the fermentor, with the media inside, along with the condenser, and a flask of distilled water were autoclaved the day before each fermentation run. An overnight culture of the strain to be used in the fermentation was then grown the night before each run. The fermentor was connected to the BioFlo 3000 system when ready to begin the run. […] The nitrogen and water flows were then opened, whereby the fermentor was ready for the addition of the overnight culture. The following was then added to the fermentor: (1) 300 mL of sterile, filtered LB broth, (2) an amount of xylose determined as a function of the desired initial sugar concentration, (3) an amount of ampicillin such that the initial concentration in the fermentor was always 100 mg/L, and (4) the overnight culture, whereby fermentation began. […]
smiles,measurement,value
O=C[C@H](O)[C@@H](O)[C@H](O)CO [xylose],xylose concentration found to inhibit cell growth and ethanol production,> 175 g/L
